Measurements taken from the supplement of paper PMC10307832.

How the values were obtained:
Assay in all cases: relative viability (nuclei count vs DMSO), 5 days (fraction); higher = more cells survive
IPA-3 + Bortezomib = compound: C1=CC=C2C(=C1)C=CC(=C2SSC3=C(C=CC4=CC=CC=C43)O)O [IPA-3] + CC(C)C[C@H](NC(=O)[C@H](Cc1ccccc1)NC(=O)c1cnccn1)B(O)O [Bortezomib] (partner 0.002 µM)
Outline: (§1)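 One day after seeding in 1536-well plates, lung cancer cell lines were dosed by pin tool. Dosing was either single-drug or a fixed anchor-drug dose plus five library-drug doses (not always all listed) in √10 steps. After 5 days, nuclei were stained in one fix-and-stain step and counted on 4× images, and relative viability is the nuclei count of treated wells over that of vehicle wells, given as the median of duplicate plates.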

IPA-3 + Foretinib = compound: C1=CC=C2C(=C1)C=CC(=C2SSC3=C(C=CC4=CC=CC=C43)O)O [IPA-3] + COc1cc2c(Oc3ccc(NC(=O)C4(C(=O)Nc5ccc(F)cc5)CC4)cc3F)ccnc2cc1OCCCN1CCOCC1 [Foretinib] (partner 0.25 µM)
Outline: as §1

Doramapimod + Tozasertib = compound: Cc1ccc(-n2nc(C(C)(C)C)cc2NC(=O)Nc2ccc(OCCN3CCOCC3)c3ccccc23)cc1 [Doramapimod] + Cc1cc(Nc2cc(N3CCN(C)CC3)nc(Sc3ccc(NC(=O)C4CC4)cc3)n2)n[nH]1 [Tozasertib] (partner 0.1 µM)
Outline: as §1

RAF265 + Vorinostat = compound: Cn1c(Nc2ccc(C(F)(F)F)cc2)nc2cc(Oc3ccnc(-c4ncc(C(F)(F)F)[nH]4)c3)ccc21 [RAF265] + O=C(CCCCCCC(=O)Nc1ccccc1)NO [Vorinostat] (partner 1 µM)
Outline: as §1

Cell Line	relative viability (IPA-3 + Bortezomib; first compound 0.2 µM)	relative viability (IPA-3 + Bortezomib; first compound 0.6325 µM)	relative viability (IPA-3 + Bortezomib; first compound 2 µM)	relative viability (IPA-3 + Bortezomib; first compound 6.325 µM)	relative viability (IPA-3 + Bortezomib; first compound 20 µM)	relative viability (IPA-3 + Foretinib; first compound 0.2 µM)	relative viability (IPA-3 + Foretinib; first compound 0.6325 µM)	relative viability (IPA-3 + Foretinib; first compound 2 µM)	relative viability (IPA-3 + Foretinib; first compound 6.325 µM)	relative viability (IPA-3 + Foretinib; first compound 20 µM)	relative viability (Doramapimod + Tozasertib; first compound 0.02 µM)	relative viability (Doramapimod + Tozasertib; first compound 0.06325 µM)	relative viability (Doramapimod + Tozasertib; first compound 0.2 µM)	relative viability (Doramapimod + Tozasertib; first compound 0.6325 µM)	relative viability (Doramapimod + Tozasertib; first compound 2 µM)	relative viability (RAF265 + Vorinostat; first compound 0.01 µM)	relative viability (RAF265 + Vorinostat; first compound 0.03162 µM)	relative viability (RAF265 + Vorinostat; first compound 0.1 µM)	relative viability (RAF265 + Vorinostat; first compound 0.3162 µM)	relative viability (RAF265 + Vorinostat; first compound 1 µM)
201T	1.08	0.931	1.08	1.12	1.13	1.33	1.11	1.17	1.09	1.15	0.914	0.918	0.935	1.05	0.906	0.975	0.966	0.998	0.974	0.994
A549	–	–	–	–	–	0.988	0.927	1.01	0.884	1.21	–	–	–	–	–	–	–	–	–	–
A-427	0.976	0.974	1.01	0.942	1.01	1.1	1.08	1.11	1.06	1.14	0.248	0.216	0.218	–	0.189	0.89	0.829	0.892	0.733	0.423
ABC-1	0.297	0.345	–	0.295	0.257	1.06	1.13	1	1.17	1.19	0.235	0.228	0.183	0.189	0.123	1.34	0.853	1.3	0.982	0.644
BEN	0.807	0.707	0.806	0.823	0.799	0.733	0.598	0.729	0.889	0.614	0.533	0.402	0.499	0.325	0.429	0.569	0.586	0.6	0.662	0.544
CAL-12T	0.956	0.987	0.847	0.935	1.15	1.16	1.01	1.12	0.976	1.14	0.298	0.341	0.338	0.272	0.315	0.781	0.825	0.61	0.606	0.372
COR-L23	1.12	0.946	1.06	0.939	0.802	1.12	0.964	1.04	0.928	0.906	0.268	0.22	0.173	0.178	0.176	0.487	0.297	0.392	0.268	0.248
COR-L 105	0.856	0.885	0.7	0.879	0.603	1.24	1.11	0.744	1.02	1.15	0.409	0.342	0.376	0.35	0.365	1.03	0.896	0.845	0.725	0.495
Calu-6	1.02	1.04	0.895	0.959	0.837	1.01	0.95	0.96	0.808	0.932	–	–	–	–	–	–	–	–	–	–
ChaGo-K-1	1.03	1.1	0.861	1.08	1.31	0.933	0.875	0.996	0.93	1.14	0.225	0.227	0.229	0.215	0.217	0.783	0.826	0.727	0.635	0.578
EBC-1	0.488	0.548	0.546	0.546	0.581	0.104	0.113	0.0992	0.121	0.108	–	–	–	–	–	–	–	–	–	–
EKVX	1.31	0.995	1.12	0.988	1.54	0.775	0.668	0.895	0.893	1.21	0.324	0.385	0.43	0.336	0.341	0.775	0.659	0.87	–	0.581
EMC-BAC-2	1.16	1.11	1.04	1.04	1.22	1.07	1	1.07	1.01	1.22	0.284	0.286	0.272	0.304	0.238	0.449	0.359	0.306	0.141	0.103
EPLC-272H	0.87	0.95	0.816	0.861	1.13	0.901	0.639	0.655	0.795	0.857	0.319	0.275	0.441	0.29	0.246	0.503	0.472	0.318	0.22	0.113
H3255	0.818	0.709	0.601	0.754	0.846	0.861	0.865	0.876	0.832	0.861	0.688	0.65	0.669	0.602	0.452	0.889	0.748	0.804	0.231	0.413
HARA	1.16	1.06	1.13	1.01	1.24	1.23	0.854	0.943	0.855	1.31	0.128	0.112	0.106	–	0.107	0.454	0.64	0.537	0.546	0.192
HCC-15	1.34	0.99	0.838	1.02	1.21	1.11	0.965	1.03	1.01	1.02	0.401	0.343	0.414	–	0.309	0.803	0.937	0.867	0.782	0.551
HCC-44	0.918	0.852	0.897	0.894	0.835	–	–	–	–	–	0.961	1.01	1.19	0.913	0.84	1.02	1.07	1.19	1.08	1.06
HCC-78	0.624	0.359	0.555	0.479	0.675	0.555	0.611	0.606	0.668	0.655	0.404	0.537	0.291	0.471	0.402	0.459	0.485	0.464	0.645	0.406
HCC-366	1.36	0.996	1.04	1.08	1.25	0.929	0.851	0.911	0.833	0.856	0.117	0.129	0.15	0.0878	0.0672	0.307	0.344	0.252	0.205	0.146

Cell Line	relative viability (IPA-3 + Bortezomib; first compound 0.2 µM)	relative viability (IPA-3 + Bortezomib; first compound 0.6325 µM)	relative viability (IPA-3 + Bortezomib; first compound 2 µM)	relative viability (IPA-3 + Bortezomib; first compound 6.325 µM)	relative viability (IPA-3 + Bortezomib; first compound 20 µM)	relative viability (IPA-3 + Foretinib; first compound 0.2 µM)	relative viability (IPA-3 + Foretinib; first compound 0.6325 µM)	relative viability (IPA-3 + Foretinib; first compound 2 µM)	relative viability (IPA-3 + Foretinib; first compound 6.325 µM)	relative viability (IPA-3 + Foretinib; first compound 20 µM)	relative viability (Doramapimod + Tozasertib; first compound 0.02 µM)	relative viability (Doramapimod + Tozasertib; first compound 0.06325 µM)	relative viability (Doramapimod + Tozasertib; first compound 0.2 µM)	relative viability (Doramapimod + Tozasertib; first compound 0.6325 µM)	relative viability (Doramapimod + Tozasertib; first compound 2 µM)	relative viability (RAF265 + Vorinostat; first compound 0.01 µM)	relative viability (RAF265 + Vorinostat; first compound 0.03162 µM)	relative viability (RAF265 + Vorinostat; first compound 0.1 µM)	relative viability (RAF265 + Vorinostat; first compound 0.3162 µM)	relative viability (RAF265 + Vorinostat; first compound 1 µM)
HCC-827	1.1	0.936	1.01	0.996	1	1.04	1.04	1.08	0.952	0.947	0.422	0.414	0.422	0.375	0.356	0.866	0.808	0.543	–	0.704
HOP-62	1.09	0.858	0.722	0.701	0.93	1.28	1.04	1.21	1.09	1.19	0.386	0.356	0.382	0.424	0.28	0.664	0.542	0.56	0.507	0.332
IA-LM	0.883	0.808	0.842	0.703	0.546	1.24	0.989	1.16	1.05	1.23	–	–	–	–	–	1.06	0.779	0.895	0.925	0.849
LC-2-ad	1	0.974	1.05	0.983	0.998	0.986	0.934	0.832	0.938	1.03	0.447	0.444	0.448	0.413	0.484	0.774	0.7	0.729	0.596	0.387
LK-2	–	–	–	–	–	1.25	1.31	1.3	1.63	1.5	0.186	0.182	0.18	0.179	0.192	0.361	0.245	0.328	0.404	0.2
NCI-H358	–	–	–	–	–	0.815	0.622	0.713	0.732	0.721	0.0934	0.0925	0.101	0.105	0.109	0.744	0.564	0.613	0.459	0.178
NCI-H522	–	–	–	–	–	–	–	–	–	–	0.501	0.489	0.579	0.59	0.471	0.841	1.02	1.05	0.872	0.857
NCI-H1299	0.995	1.01	0.996	0.996	1	1.1	1.07	1.17	0.678	1.06	–	–	–	–	–	–	–	–	–	–
NCI-H1395	–	–	–	–	–	1.07	0.901	0.98	0.934	1.02	0.765	0.778	0.783	0.761	0.717	0.791	0.65	0.807	0.554	0.587
NCI-H1563	1.03	0.689	0.801	0.996	0.846	0.996	0.87	1.01	1.01	0.867	–	–	–	–	–	–	–	–	–	–
NCI-H1623	–	–	–	–	–	0.97	0.899	0.878	0.815	0.923	0.424	0.426	0.411	0.46	0.318	–	–	–	–	–
NCI-H1648	–	–	–	–	–	–	–	–	–	–	0.442	0.498	0.58	0.353	0.481	0.464	0.539	0.352	0.317	0.263
NCI-H1703	0.265	0.288	0.463	0.579	0.445	0.295	0.339	0.331	0.349	0.391	–	–	–	–	–	–	–	–	–	–
NCI-H1792	1.1	0.928	1.08	0.895	1.16	–	–	–	–	–	–	–	–	–	–	–	–	–	–	–
NCI-H1793	–	–	–	–	–	0.918	0.67	0.656	0.757	1.05	0.27	0.319	0.319	0.352	0.26	0.865	0.697	0.633	0.201	0.311
NCI-H1944	–	–	–	–	–	1.05	0.856	0.879	0.938	0.928	0.234	0.229	0.235	0.256	0.235	0.674	0.602	0.55	0.405	0.491
NCI-H2170	–	–	–	–	–	1.03	0.942	1.04	0.948	1.13	0.717	0.611	0.824	0.636	0.6	0.859	0.859	0.761	0.393	0.521
NCI-H2342	–	–	–	–	–	1.11	1.04	1.15	1.19	1.3	0.494	0.508	0.554	0.584	0.621	0.714	0.809	0.851	0.667	0.764
SK-MES-1	–	–	–	–	–	0.982	0.889	0.892	0.953	1.22	0.94	0.869	0.81	0.856	0.781	1.12	0.772	0.519	0.398	0.343
SW 900	–	–	–	–	–	1.04	0.792	0.975	1.14	1.08	0.538	0.584	0.618	0.479	0.481	0.544	0.494	0.503	0.381	0.227
